Measured values: ChEMBL document CHEMBL4376805, “Plasmodium Purine Metabolism and Its Inhibition by Nucleoside and Nucleotide Analogues” (J Med Chem, 2019)
Each block holds one molecule with its values, some of them ahead of it.

Legend:
[1] = target: T1, Purine nucleoside phosphorylase (Plasmodium falciparum, UniProt Q8T9Z7)
T1 sequence (Q8T9Z7 whole entry): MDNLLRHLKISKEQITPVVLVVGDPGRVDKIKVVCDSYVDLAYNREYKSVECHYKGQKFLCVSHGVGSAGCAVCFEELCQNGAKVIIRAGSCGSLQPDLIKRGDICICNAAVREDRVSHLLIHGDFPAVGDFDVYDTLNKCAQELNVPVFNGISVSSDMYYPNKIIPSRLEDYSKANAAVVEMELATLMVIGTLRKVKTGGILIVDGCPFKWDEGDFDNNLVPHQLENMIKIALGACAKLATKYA
Description: Inhibition of Plasmodium falciparum His-tagged PNP assessed as inhibitor constant for enzyme-inhibitor-substrate complex formation

[2] = target: T2, Purine nucleoside phosphorylase (Homo sapiens, UniProt P00491)
T2 sequence (P00491 whole entry): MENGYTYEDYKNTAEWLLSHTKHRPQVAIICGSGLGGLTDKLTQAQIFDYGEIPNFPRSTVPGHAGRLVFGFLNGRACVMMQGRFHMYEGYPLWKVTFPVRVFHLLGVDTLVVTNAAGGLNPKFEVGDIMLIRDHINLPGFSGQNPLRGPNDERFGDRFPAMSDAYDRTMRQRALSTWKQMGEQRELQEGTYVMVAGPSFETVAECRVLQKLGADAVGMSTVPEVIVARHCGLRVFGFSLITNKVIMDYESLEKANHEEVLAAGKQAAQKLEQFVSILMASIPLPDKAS
Description: Inhibition of human PNP assessed as inhibitor constant for enzyme-inhibitor-substrate complex formation

[3] = Inhibition of Plasmodium falciparum HGXPRT expressed in Escherichia coli BL21 (DE3) assessed as inhibitor constant for enzyme-inhibitor-substrate complex formation using [5'-14C]IMP as substrate by scintillation counting method
Plasmodium falciparum [4] = assay: Antimalarial activity against multi drug-resistant Plasmodium falciparum K1 assessed as reduction in parasite growth [3H]Hypoxanthine incorporation assay; type: functional; details: read-out: ID50 (the source's name)
Adenosine deaminase [5] = target: T3, Adenosine deaminase (Plasmodium falciparum, UniProt Q86GS5); assay: Inhibition of Plasmodium falciparum ADA assessed as reduction in formation of ammonia using adenosine as substrate incubated for 15 mins by spectrophotometric analysis
T3 sequence (Q86GS5 whole entry): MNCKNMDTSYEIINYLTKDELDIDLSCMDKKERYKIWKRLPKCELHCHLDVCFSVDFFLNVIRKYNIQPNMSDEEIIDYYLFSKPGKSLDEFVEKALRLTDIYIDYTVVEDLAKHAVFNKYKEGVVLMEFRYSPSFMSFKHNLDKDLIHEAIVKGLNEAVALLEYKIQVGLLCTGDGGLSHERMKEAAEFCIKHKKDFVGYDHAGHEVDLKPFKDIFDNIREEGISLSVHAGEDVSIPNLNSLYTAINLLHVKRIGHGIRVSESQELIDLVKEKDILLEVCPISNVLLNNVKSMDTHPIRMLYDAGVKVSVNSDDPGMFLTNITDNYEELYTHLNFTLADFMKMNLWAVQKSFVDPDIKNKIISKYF

Adenosine deaminase [6] = target: T3, Adenosine deaminase; assay: Inhibition of Plasmodium falciparum N-terminal thrombin cleavable His6-tagged ADA expressed in Escherichia coli BL21 assessed as equilibrium dissociation constant by measuring reduction in formation of inosine using adenosine as substrate
Adenosine deaminase [7] = target: T3, Adenosine deaminase; assay: Inhibition of Plasmodium falciparum N-terminal thrombin cleavable His6-tagged ADA expressed in Escherichia coli BL21 assessed as reduction in formation of inosine using adenosine as substrate
Plasmodium falciparum [8] = assay: Antimalarial activity against Plasmodium falciparum 3D7 assessed as reduction in parasite growth incubated for 48 hrs by Giemsa-staining counting based microscopic analysis; type: functional, organism-based; details: 3D7, 48 h
[9] = target: T4, GMP synthase [glutamine-hydrolyzing] (Plasmodium falciparum) (UniProt Q8IJR9); assay: Inhibition of Plasmodium falciparum N-terminal His-tagged GMP synthase expressed in Escherichia coli AT2465 assessed as reduction in NADH formation incubated at 0.5 mM for 20 mins by spectrophotometric analysis relative to control
T4 sequence (whole entry): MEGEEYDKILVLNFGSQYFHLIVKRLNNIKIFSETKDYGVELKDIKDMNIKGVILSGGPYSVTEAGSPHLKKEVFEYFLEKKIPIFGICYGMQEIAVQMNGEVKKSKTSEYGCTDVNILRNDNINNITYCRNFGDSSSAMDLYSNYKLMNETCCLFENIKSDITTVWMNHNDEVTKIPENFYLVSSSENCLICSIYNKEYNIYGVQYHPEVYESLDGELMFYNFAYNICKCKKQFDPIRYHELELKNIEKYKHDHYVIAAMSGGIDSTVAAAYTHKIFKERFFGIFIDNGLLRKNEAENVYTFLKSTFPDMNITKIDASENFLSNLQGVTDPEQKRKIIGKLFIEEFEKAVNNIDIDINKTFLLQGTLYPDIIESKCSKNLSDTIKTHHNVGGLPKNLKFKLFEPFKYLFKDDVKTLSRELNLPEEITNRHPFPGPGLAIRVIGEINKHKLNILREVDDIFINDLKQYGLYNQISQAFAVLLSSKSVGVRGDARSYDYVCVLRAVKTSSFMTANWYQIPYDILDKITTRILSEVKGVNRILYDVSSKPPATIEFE

[10] = target: T1, Purine nucleoside phosphorylase; remark: listed apart in the source
Description: Inhibition of Plasmodium falciparum His-tagged PNP assessed as inhibitor constant for enzyme-inhibitor complex formation

[11] = target: T2, Purine nucleoside phosphorylase; remark: listed apart in the source
Description: Inhibition of human PNP assessed as inhibitor constant for enzyme-inhibitor complex formation

Plasmodium falciparum [12] = assay: Antimalarial activity against synchronized Plasmodium falciparum ring stage form assessed as reduction in [2,8-3H]Hypoxanthine incorporation incubated for 48 hrs followed by addition of [2,8-3H]Hypoxanthine and measured after 24 hrs by liquid scintillation counting method; type: functional, organism-based
[13] = target: GMP synthase [glutamine-hydrolyzing] (Homo sapiens, UniProt P49915)
GMP synthase [glutamine-hydrolyzing], sequence (P49915 whole entry): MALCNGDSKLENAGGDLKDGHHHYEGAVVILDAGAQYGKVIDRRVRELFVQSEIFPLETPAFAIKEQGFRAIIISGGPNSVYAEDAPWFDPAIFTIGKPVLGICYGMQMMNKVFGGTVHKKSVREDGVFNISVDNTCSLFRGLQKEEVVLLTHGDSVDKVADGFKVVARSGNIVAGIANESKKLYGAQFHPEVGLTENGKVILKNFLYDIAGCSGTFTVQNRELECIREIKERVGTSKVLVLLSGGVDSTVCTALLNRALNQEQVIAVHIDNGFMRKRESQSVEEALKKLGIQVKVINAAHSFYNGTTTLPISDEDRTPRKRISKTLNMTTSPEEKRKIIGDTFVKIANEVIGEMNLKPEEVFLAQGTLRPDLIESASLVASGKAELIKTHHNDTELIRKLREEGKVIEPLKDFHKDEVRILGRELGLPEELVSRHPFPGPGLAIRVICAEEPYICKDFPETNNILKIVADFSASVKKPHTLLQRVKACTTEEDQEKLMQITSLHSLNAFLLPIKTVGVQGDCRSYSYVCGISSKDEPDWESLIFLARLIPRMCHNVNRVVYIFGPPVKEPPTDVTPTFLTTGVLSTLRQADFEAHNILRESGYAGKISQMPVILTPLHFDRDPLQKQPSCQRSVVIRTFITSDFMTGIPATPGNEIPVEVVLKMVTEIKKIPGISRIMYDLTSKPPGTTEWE
Description: Inhibition of human GMP synthase

[14] = target: T2, Purine nucleoside phosphorylase; assay: Inhibition of human PNP expressed in Escherichia coli assessed as reduction in uric acid formation by spectrophotometric method
Plasmodium falciparum [15] = assay: microbe, parasite or virus in culture; details: 3D7
Description: Antimalarial activity against Plasmodium falciparum 3D7 infected in human erythrocytes assessed as reduction in [3H]ethanolamine incorporation incubated for 18 hrs followed by addition of [3H]ethanolamine and measured after 48 hrs by scintillation counting method

[16] = target: T5, Hypoxanthine-guanine phosphoribosyltransferase (Homo sapiens, UniProt P00492); assay: Inhibition of human HGPRT assessed as inhibitor constant for enzyme-inhibitor complex formation using [5'-14C]IMP as substrate by scintillation counting method
T5 sequence (P00492 whole entry): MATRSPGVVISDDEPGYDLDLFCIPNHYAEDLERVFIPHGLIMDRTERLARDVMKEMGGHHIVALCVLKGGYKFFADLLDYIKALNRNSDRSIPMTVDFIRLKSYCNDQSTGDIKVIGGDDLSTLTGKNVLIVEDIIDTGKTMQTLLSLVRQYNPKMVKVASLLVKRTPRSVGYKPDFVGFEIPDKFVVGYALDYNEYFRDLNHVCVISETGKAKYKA

[17] = substrate: O=c1[nH]cnc2c1ncn2[C@@H]1O[C@H](CO)[C@@H](O)[C@H]1O; assay: Binding affinity to Plasmodium falciparum His-tagged PNP assessed as catalytic rate by measuring uric acid formation
[18] = substrate: O=c1[nH]cnc2c1ncn2[C@@H]1O[C@H](CO)[C@@H](O)[C@H]1O; assay: Binding affinity to human PNP assessed as catalytic rate by measuring uric acid formation

Molecule: Nc1nc2c([C@@H]3N[C@H](CO)[C@@H](O)[C@H]3O)c[nH]c2c(=O)[nH]1
- Ki [1]: 0.9 nM
- Ki [2]: 29 nM

Molecule: O=c1[nH]cnc2c([C@@H]3N[C@H](COP(=O)(O)O)[C@@H](O)[C@H]3O)c[nH]c12
- Ki [3]: 1 nM

Molecule: O=[N+]([O-])c1ccc(CSc2ncnc3c2ncn3[C@@H]2O[C@H](CO)[C@@H](O)[C@H]2O)cc1 [NITROBENZYLMERCAPTOPURINE RIBONUCLEOSIDE]
- IC50 (Plasmodium falciparum [4]): 4200 nM

- Ki (Adenosine deaminase [5]): 0.007 nM
Molecule: OC[C@H]1O[C@@H](n2cnc3c2NC=NC[C@@H]3O)[C@H](O)[C@@H]1O

- Ki (Adenosine deaminase [5]): 0.25 nM
- Ki (Adenosine deaminase [6]): 0.08 nM
- Ki (Adenosine deaminase [7]): 0.68 nM
Molecule: OC[C@H]1O[C@@H](n2cnc3c2N=CNC[C@H]3O)[C@H](O)[C@@H]1O [COFORMYCIN]

- inhibition [9]: 25%
Molecule: Nc1ncnc2c1ncn2[C@]1(CO)O[C@H](CO)[C@@H](O)[C@H]1O [PSICOFURANINE]
- IC50 (Plasmodium falciparum [8]): 300000 nM

Molecule: O=c1[nH]cnc2c(CN3C[C@@H](CO)[C@H](O)C3)c[nH]c12
- Ki [10]: 1.5 nM
- Ki [1]: 0.68 nM
- Ki [11]: 1700 nM
- Ki [2]: 80 nM

Molecule: Nc1nc(SCc2ccc([N+](=O)[O-])cc2)c2ncn([C@@H]3O[C@H](CO)[C@@H](O)[C@H]3O)c2n1
- IC50 (Plasmodium falciparum [4]): 4500 nM

- IC50 (Plasmodium falciparum [12]): 2000 nM
Molecule: Nc1ncnc2c1c(I)cn2[C@@H]1O[C@H](CO)[C@@H](O)[C@H]1O [IODOTUBERCIDIN]

- IC50 [13]: 46500 nM
Molecule: C=C1O[C@@](CO)(n2cnc3c(N)ncnc32)[C@H](O)[C@@H]1O [DECOYININE]

- Ki [14]: 303 nM
- IC50 (Plasmodium falciparum [15]): 50 nM
Molecule: CSC[C@H]1N[C@@H](c2c[nH]c3c(=O)[nH]cnc23)[C@H](O)[C@@H]1O

- Ki [16]: 56 nM
Molecule: Nc1nc2c([C@@H]3N[C@H](COP(=O)(O)O)[C@@H](O)[C@H]3O)c[nH]c2c(=O)[nH]1
- Ki [3]: 14 nM

Molecule: O=c1[nH]cnc2c([C@@H]3N[C@H](CO)[C@@H](O)[C@H]3O)c[nH]c12 [FORODESINE]
- IC50 (Plasmodium falciparum [15]): 63 nM

B1: Purine nucleoside phosphorylase (Plasmodium falciparum), Q8T9Z7 (protein)
chain: T1 sequence (Q8T9Z7 whole entry)
- kcat [17]: 0.34 s⁻¹

B2: Purine nucleoside phosphorylase (Homo sapiens), P00491 (protein)
chain: T2 sequence (P00491 whole entry)
- kcat [18]: 56 s⁻¹
